Each structure is given as a SMILES string. Where a name gives a salt, the structure may show the parent alone. Read-outs that look alike come from different tables or passages of the source. A value given as a limit tells only on which side of the number the result lay.

Our source for the ED50 and LD50 values is patent US3954777A, “Aminopropionyl derivatives of 2,3-diphenyl cyclopropylamine” (Zambon S.p.A., priority 1970, dated 1976).

Series [1] relates to crisis produced with cardiazol. Briefly: Schock by cardiazol (M.M.S.), protection from extensor phase of hind paws. It counts as in vivo, male albine Swiss mice. To be noted: Mus musculus. On the procedure: (§1) The preferred method is that according to Schotten-Baumann. […] Preferably an excess of the same amine is used both as acid binding substance and as solvent. If the amine is a low-boiling one the reaction is carried out in a sealed tube while if the amine has a high-boiling point is preferred to operate at the boiling temperature of the reaction mixture. […] Materials and methods. The animals used in the tests, unless otherwise indicated, were male albine Swiss mice weighing 19-23 g; each animal has been used only once.
(§2) Electroshock (M.E.S.). The method followed in performing the electroshock is C. H. Cashin and J. Jackson's method (J.Pharm.Pharmacol.,1962, 14 (supl.) 445) modified as follows: the electrodes are placed in the outer ear which is, before the shock, filled with a physiological solution. The applied voltage is of 92 volts with a current of 50 Hz stabilized with Selonix H.T. 4420 stabilizer; duration of shock 0.2 seconds. […] (E. A. Swinyard, W. C. Brown; L. S. Goodman, J. Pharmacol., 1952, 106, 319) Schock by cardiazol (M.M.S.). 38 mg/kg of cardiazol, under the form of a 0.38% aqueous solution, is quickly injected in the dorsal vein of the mouse tail (L. S. Goodman, M. Singh Grewal, W. C. Brown, E. A. Swinyard, J. Pharmacol. 1953, 108, 168). The animals are considered as protected when the extensor phase of the hind paws is eliminated during the tonic crisis. The so obtained data have been elaborated by calculating the ED50 and the LD50 according to Lichtfield-Wilcoxon's method (J. Pharmacol. 1949, 96, 99).

Series [2] can be described thus: Acute toxicity (LD50), deaths within 72 hours. To be noted: mouse, ip. On the procedure:
as §1, §2

For series [3], the system named is crisis produced with electroshock. The series is described as follows: Electroshock (M.E.S.), protection from extensor phase of hind paws. The conditions noted are these: Mus musculus. The series is classed as in vivo, male albine Swiss mice. The method, then:
as §1, §2

[4] abbreviates: sc, 0.5 h, read-out: M.M.S. ED50.
[5] abbreviates: sc, 0.5 h, reference compounds (Table 1), under skin, 30 minutes ante, cardiazol 38 mg/kg i.v., read-out: M.M.S. ED50.
Where [6] appears, read: sc, 0.5 h, reference compounds (Table 1), under skin, 30 minutes ante, read-out: M.E.S.-ED50.
Setting [7] is: sc, 0.5 h, new compounds (Table 2), under skin, 30 minutes ante, as hydrochlorides, cardiazol 38 mg/kg i.v., read-out: ED50 M.M.S.
Setting [8] is: sc, 0.5 h, new compounds (Table 2), under skin, 30 minutes ante, as hydrochlorides, read-out: ED50 M.E.S.

Turning to `CCC1(c2ccccc2)C(=O)NC(=O)NC1=O` [Phenobarbital sodium salt, reference compound], the ED50 turned out to be 4.5 mg/kg in series [1] (setting [4]) and 35 mg/kg in series [3] (sc, 0.5 h, read-out: M.E.S.-ED50). Besides, the LD50 at 72 h in series [2] (in vivo) was found to be 182 mg/kg.

As for `Cc1ccccc1OCC(O)CO` (centres unmarked) [mephenesin, reference compound], the ED50 in series [1] (setting [5]) is 180 mg/kg; in series [3] (setting [6]), 245 mg/kg.

In the case of `CN(CCC(=O)NC1[C@H](c2ccccc2)[C@H]1c1ccccc1)Cc1ccccc1` (relative stereo) [cis-trans, R1 = CH3, R2 = CH2 --C6 H5, N-[beta-(N'-benzyl)methylamino]propionyl-2,3-cis,trans-diphenylcyclopropylamine hydrochloride], the ED50 is 98 mg/kg in series [1] (setting [7]) and 91 mg/kg in series [3] (setting [8]).

As for `CN1CCN(CCC(=O)NC2[C@H](c3ccccc3)[C@H]2c2ccccc2)CC1` (relative stereo) [cis-trans (line b82)], the ED50 in series [3] (setting [8]) was found to be 275 mg/kg.

Turning to `O=C(CCN1CCCC1)NC1[C@H](c2ccccc2)[C@H]1c1ccccc1` (relative stereo) [cis-trans (line b76)], the median effective dose (ED50) in series [1] (setting [7]) came to 20 mg/kg; in series [3] (setting [8]), 24 mg/kg.

Turning to `CCC1(C)CC(=O)NC1=O` (centres unmarked) [ethosuximide, reference compound], in series [1] (setting [5]), the ED50 was found to be 50 mg/kg.

Consider `CN(C)CCC(=O)NC1[C@H](c2ccccc2)[C@H]1c1ccccc1` (relative stereo) [cis-trans, R1 = CH3, R2 = CH3, N-(beta-dimethylamino)propionyl-2,3 -cis,trans-diphenylcyclopropylamine], for which the ED50 in series [1] (setting [7]) worked out at 16.5 mg/kg; in series [3] (setting [8]), 21.8 mg/kg. Further, the LD50 at 72 h in series [2] was found to be 88 mg/kg.

On to `CN(C)C(=O)Nc1ccccc1` [Phenurone, 1,1-dimethyl-3-phenyl-urea, reference compound], for which the ED50 was 50 mg/kg in series [1] (po, 1 h, read-out: M.M.S. ED50) and 115 mg/kg in series [3] (po, 1 h, read-out: M.E.S.-ED50).

Consider `O=C1NC(=O)C(c2ccccc2)(c2ccccc2)N1` [phenitoine sodium salt, reference compound], for which the 50% effective dose (ED50) in series [1] (setting [5]) is 7.1 mg/kg; in series [3] (setting [6]), 15 mg/kg. In series [2] (in vivo), this compound registered an LD50 at 72 h of 120 mg/kg.

Regarding `CCNCCC(=O)NC1[C@H](c2ccccc2)[C@H]1c1ccccc1` (relative stereo) [cis-trans, R1 = H, R2 = C2 H5, N-(beta-ethylamino)propionyl- 2,3 -cis,trans-diphenylcyclopropylamine hydrochloride], the ED50 in series [1] (setting [7]) and in series [3] (setting [8]) was over 90 mg/kg in each case. For the same compound, the LD50 at 72 h in series [2] was found to be 89.5 mg/kg.

As for `CCC1(c2ccccc2)C(=O)NCNC1=O` [primidone, reference compound], in series [1] (po, reference compound (Table 1), per os, 6 hours ante, cardiazol 38 mg/kg i.v., read-out: M.M.S. ED50), the ED50 is 5.2 mg/kg.

Turning to `O=C(CCN1CCCCC1)NC1[C@H](c2ccccc2)[C@H]1c1ccccc1` (relative stereo) [cis-trans (line b79)], the ED50 was determined as 15 mg/kg in series [1] (setting [7]) and 16 mg/kg in series [3] (setting [8]).

As to `CN1C(=O)OC(C)(C)C1=O` [Trimethadione, reference compound], in series [1] (setting [4]), the ED50 was 175 mg/kg.

For the compound `CNCCC(=O)NC1[C@H](c2ccccc2)[C@H]1c1ccccc1` (relative stereo) [cis-trans, R1 = H, R2 = CH3, N-(beta-methylamino)-propionyl-2,3 -cis,trans-diphenyl cyclopropylamine hydrochloride], the ED50 in series [1] (setting [7]) and in series [3] (setting [8]) was over 120 mg/kg in each case. The compound further had an LD50 at 72 h in series [2] of 120 mg/kg.

`CCN(CC)CCC(=O)NC1[C@H](c2ccccc2)[C@H]1c1ccccc1` (relative stereo) [cis-trans, R1 = C2 H5, R2 = C2 H5, N-(beta-diethylamino)propionyl-2,3 -cis,trans-diphenylcyclopropylamine]: the figures for the ED50 in series [1] (setting [7]) and in series [3] (setting [8]) were 27 mg/kg and 33.5 mg/kg, respectively. In series [2], this compound displayed an LD50 at 72 h of 79 mg/kg.

The term ED50 denotes the midpoint of the dose-response relation. By LD50 is commonly meant the dose expected to kill half of the subjects tested. Read a low LD50 as greater toxicity.
